Among the data in PubChem BioAssay (NCI) are GI50 and TGI values, retold here.

Experiment in all cases: growth of human tumour cells (NCI), 48 h
For test [1], the system named is SK-MEL-2 melanoma.
For test [2], the system named is EKVX NSCLC.
Test [3] has as its system SNB-19 CNS.
Test [4] relates to OVCAR-3 ovarian.
Test [5] deals with UACC-257 melanoma.
Test [6] concerns HCC-2998 colon.
Test [7] has as its system LOX IMVI melanoma.
Test [8] deals with A498 renal.
Test [9] deals with HOP-92 NSCLC.
For test [10], the system named is U251 CNS.

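Each compound was tested at five concentrations against cells in 96-well plates for 48 hours. Here, GI50 denotes the concentration required for 50% inhibition of growth. TGI: total growth inhibition.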

Take `Cc1ccccc1NC(=O)N/C(N)=N/c1nc2ccccc2s1`: the GI50 in test [1] is more than 100 µM; in test [3] it was 0.104 µM; in test [4], 0.0358 µM; in [5], more than 100 µM; in test [6], 0.145 µM; in test [7], 0.0759 µM. The values for the GI50 in test [8] and in test [10] were 0.0261 µM and 0.0547 µM, respectively. In addition, the TGI in [1] is more than 100 µM; in [2], more than 100 µM; in test [3] it was more than 100 µM; in test [4] it was 0.267 µM; in [5] it was more than 100 µM; in test [6], more than 100 µM. In addition, the TGI was more than 100 µM in test [7], 0.142 µM in [8], more than 100 µM in test [9] and more than 100 µM in test [10].

In the case of `CCCCCCCCCCCCCCCCc1c(C(=O)OC)[nH]c(=S)[nH]c1=O`, the TGI in test [1], in test [2], in [3], in test [4], in test [5] and in test [6] was more than 50 µM each time. Also, the TGI in [7] was more than 50 µM; in test [8], more than 50 µM; in [9], 41 µM; in test [10], more than 50 µM.

In the case of `O=[N+]([O-])c1ccc(Oc2cccnc2)c([N+](=O)[O-])c1`, the GI50 in [1] is 3.97 µM; in test [2], 14.6 µM; in test [3] it was 24.3 µM; in test [4] it was 2.75 µM; in test [5] it was 8.81 µM; in test [6], 6.53 µM. Besides, the GI50 in test [7] was 3.16 µM; in test [8], 18.7 µM; in test [9] it was 2.29 µM; in [10], 3.12 µM. In addition, the TGI was 14.8 µM in test [1]; 32.2 µM in [2]; more than 100 µM in [3]; 6.99 µM in test [4]; 22.3 µM in [5]; 41.7 µM in test [6]. The TGI came out at 13.3 µM in [7], 43.1 µM in [8], 13 µM in [9] and 12.7 µM in [10].

Turning to `CN(C)c1cc2c(Nc3ccc4nc(Cc5ccccc5)[nH]c4c3)ncnc2cn1`, the GI50 in [1] was more than 16.3 µM; in test [2], 8.68 µM; in test [3], more than 25 µM; in test [4] it was more than 18.3 µM; in [5], more than 15.3 µM; in test [6], more than 25 µM. In addition, the GI50 was more than 17.4 µM in test [7], more than 13.9 µM in test [8], more than 25 µM in test [9] and more than 17.5 µM in [10]. The TGI in test [1], in test [2], in test [3], in test [4], in test [5] and in test [6] was more than 25 µM each time. Moreover, the TGI in test [7], in test [8], in test [9] and in test [10] was more than 25 µM in each case.

For `O=[N+]([O-])c1ccccc1S(=O)(=O)c1ccccc1[N+](=O)[O-]`, the TGI is more than 100 µM in test [1]; more than 56.2 µM in [2]; more than 97.7 µM in test [3]; more than 100 µM in test [4]; more than 100 µM in test [5]; more than 100 µM in test [6]. Also, the TGI in [7] was more than 100 µM; in test [8], more than 100 µM; in test [9], 91.4 µM; in test [10], 66.5 µM.

Turning to `COC(=O)C1C2CC3C(OC(=O)C31)C2I` (stereo not drawn), the TGI in test [1], in [2], in test [3], in test [4], in test [5] and in test [6] was more than 100 µM throughout. The TGI in test [7], in [8], in test [9] and in test [10] was more than 100 µM throughout.

With `CCC1(O)C(=O)OCc2c1cc1n(c2=O)Cc2c-1nc1ccccc1c2OC` (stereo not drawn), the TGI in [1] is 14.7 µM; in test [2] it was more than 54.5 µM; in test [3], more than 29.2 µM; in [4] it was 5.85 µM; in test [5] it was 2.68 µM; in test [6], 5.77 µM. The TGI in test [7] is 0.441 µM; in test [8] it was 0.319 µM; in [9], 3.57 µM; in [10], 0.0801 µM.

Consider `O=C(O[C@H]1CN[C@H](C#Cc2cc3ncnc(Nc4ccc(Cc5ccccc5)cc4)c3s2)C1)N1CCOCC1`, for which the GI50 is 5.41 µM in [1]; 1.94 µM in test [2]; 7.73 µM in test [3]; 3.85 µM in test [4]; 5.46 µM in test [5]; 4.2 µM in test [6]. In addition, the GI50 is 4 µM in test [7], 0.768 µM in [8], 1.7 µM in test [9] and 5.52 µM in [10]. For the same compound, the TGI in [1] was 14.4 µM; in [2], more than 25 µM; in test [3], more than 25 µM; in test [4] it was 11 µM; in test [5] it was more than 22.1 µM; in test [6], 9.1 µM. Moreover, the TGI in test [7] came out at 8.03 µM; in test [8], 6.53 µM; in [9] it was 11.5 µM; in [10] it was 20.3 µM.

With `CCOC(=O)/C(=C/c1cc(OC)ccc1OC)CC(=O)O`, the TGI in [1] was 34.5 µM; in [2], more than 100 µM; in test [3], more than 100 µM; in [4] it was more than 100 µM; in test [5] it was more than 100 µM; in test [6] it was more than 31.6 µM. Besides, the TGI in [7], in test [8], in [9] and in test [10] was more than 100 µM each time.

Take `Oc1ccc(Cl)cc1Cc1cc(Cl)cc(Cc2cc(Cl)ccc2O)c1O`: the TGI in [1] amounted to 7.68 µM; in test [2] it was 7.19 µM; in test [3], 14.6 µM; in test [4], 11 µM; in test [5] it was 5.18 µM; in test [6] it was 2.79 µM. The TGI is 9.82 µM in test [7], 4.28 µM in [8], 5.94 µM in test [9] and 11.8 µM in test [10].
